SMILES strings stand for the structures. Read-outs that look alike come from different tables or passages of the source.

Series [1] is described as follows: Intraperitoneal artemether 20 mg/kg, liver damage in healthy mice (HE staining). The class given is in vivo, Male C57BL/6J mice. The protocol:
The mice were breeded in the SPF animal laboratory of the Laboratory Animal Center of Fudan University at a room temperature of 21° C.-23° C. with a 12-hour light/dark cycle. When the mice were grown to 8-week old, they were randomly divided into a control group and an administration group, with 8 mice in each group. Mice in administration group were injected intraperitoneally with artemether. Artemether for intraperitoneal injection was stored at 4° C. in coconut oil at a storage concentration of 6 mg/ml (20 mMol/L), and protected from light. Mice in administration group were injected with artemether at a dose of 20 mg/kg weight. Mice in control group were injected 100 μl coconut oil. Administration was twice a week for eight weeks. The mice were sacrificed by cervical dislocation, and liver tissues of mice were removed and fixed. Liver tissue fixation, paraffin embedding, sectioning and HE staining was commissioned by Shanghai Saige Biotech Co., Ltd.

The subject of series [2] is high fat-fed mice. Nature of the series: Subcutaneous artemether, cold exposure and UCP1 immunohistochemistry of subcutaneous fat in high fat-fed mice. The class given is in vivo, Male C57BL/6J mice. To be noted: high-fat diet, subcutaneous injection, eight weeks. Here is the method: The mice were breeded in the SPF animal laboratory of the Laboratory Animal Center of Fudan University at a room temperature of 21° C.-23° C. with a 12-hour light/dark cycle. […] When the mice were grown to 8-week old, they were randomly divided into a control group and an administration group, with 8 mice in each group. While the mice were fed with a high-fat diet, artemether was injected subcutaneously. Artemether was diluted in PBS at a concentration of […], and injected into bilateral inguinal region, with 200 μl being injected into each side. Mice in control group were injected with the same volume of PBS. Administration was continued for eight weeks. Mice were fasted and housed in a breeding box at 4° C. The rectal temperature was measured every 2 hours. The mice were sacrificed by cervical dislocation after 6 hours, and the inguinal fat was removed for histological analysis. The histological analysis including tissue fixation, paraffin embedding, sectioning and immunohistochemistry experiment of UCP1 was commissioned by Shanghai Saige Biotech Co., Ltd.

Series [3] is described as follows: Intraperitoneal artemether, food intake of mice on normal and high-fat diet. In kind it is in vivo, Male C57BL/6J mice. Particulars: intraperitoneal 20 mg/kg. The protocol: The mice were breeded in the SPF animal laboratory of the Laboratory Animal Center of Fudan University at a room temperature of 21° C.-23° C. with a 12-hour light/dark cycle. When the mice were grown to 8-week old, they were randomly divided into four groups, a high-fat control group, a high-fat administration group, a normal administration group, and a normal control group, with 8 mice in each group. Administration groups (high-fat and normal diet) were injected intraperitoneally with artemether. Artemether for intraperitoneal injection was stored at 4° C. in coconut oil at a storage concentration of 6 mg/ml (20 mMol/L), and protected from light. Mice in administration group were injected with artemether at a dose of 20 mg/kg weight, and mice in control group were injected with 100 μl coconut oil. The diet was weighed weekly and the diet consumption of mice in each group was recorded.

The conditions of series [4]: rodent models, high concentrations; no clear evidence of dose and timing; cited from earlier work.
The test system of series [5] is high fat-fed mice. Nature of the series: Intraperitoneal artemether, weight gain induced by high-fat diet. Particulars: intraperitoneal 20 mg/kg twice a week, eight weeks. In kind it is in vivo, Male C57BL/6J mice. Here is the method: (§1) The mice were breeded in the SPF animal laboratory of the Laboratory Animal Center of Fudan University at a room temperature of 21° C.-23° C. with a 12-hour light/dark cycle. […] When the mice were grown to 8-week old, they were randomly divided into a control group and an administration group, with 8 mice in each group. While the mice were fed with a high-fat diet, artemether was injected intraperitoneally. Artemether for intraperitoneal injection was stored at 4° C. in coconut oil at a storage concentration of 6 mg/ml (20 mMol/L), and protected from light. Mice in administration group were injected with artemether at a dose of 20 mg/kg weight. Administration was twice a week for eight weeks, and the weight of the mice was recorded weekly.

In series [6] the test system is high fat-fed mice. Nature of the series: Intraperitoneal artemether, serum lipid indicators in high-fat diet mice. Particulars: intraperitoneal 20 mg/kg twice a week, eight weeks. In kind it is in vivo, Male C57BL/6J mice. Here is the method: as §1, with “weeks.” for “weeks, and the weight of the mice was recorded weekly.”
The mice were anesthetized with 10% chloral hydrate and blood was taken from the orbit. The whole blood was centrifuged at 300 rpm for 5 min at 4° C.
Serum was taken and the serum indicators were measured by lipid calibrator Cfas Lipid, high-density lipoprotein Cfas, and low density lipoprotein Cfas, as well as detection kits for related indicators.

In series [7] the test system is obese mice induced by high-fat diet. The series can be described thus: Intraperitoneal artemether, random blood glucose, glucose and insulin tolerance in high-fat diet obese mice. In kind it is in vivo, Male C57BL/6J mice. Particulars: intraperitoneal 20 mg/kg twice a week, eight weeks. Here is the method: as §1, with “weeks.” for “weeks, and the weight of the mice was recorded weekly.”
The mice were fasted for 12-16 hours and injected intraperitoneally with glucose injection at a dose of […]. At 0 min, 30 min, 60 min, 90 min, and 120 min after injection, blood was collected from the tail vein, and blood glucose was measured with OneTouch ExtraEasy glucometer and OneTouch ExtraEasy blood glucose test strips and the results were recorded.
Insulin was injected intraperitoneally at a dose of 0.75 U/kg weight. At 0 min, 15 min, 30 min, 45 min and 60 min after injection, blood was collected from the tail vein, and blood glucose was measured.
The mice were anesthetized with 10% chloral hydrate and blood was taken from the orbit. The whole blood was centrifuged at 300 rpm for 5 min at 4° C. Serum was taken and the blood glucose levels were measured by automatic biochemical analyzer and calibrator for blood glucose Cfas and kit (Roche).

`CO[C@H]1O[C@@H]2O[C@@]3(C)CC[C@H]4[C@H](C)CC[C@@H]([C@H]1C)[C@@]24OO3` [artemether]: the “morphology of liver cells” value in series [1] (healthy lean mice, intraperitoneal 20 mg/kg twice a week, eight weeks) was “normal, and had no difference from that of mice in control group”. The hepatotoxicity result in series [1] (intraperitoneal 20 mg/kg weight twice a week for eight weeks) is “no hepatotoxicity”. The “body temperature in an environment of 4° C.” value with high fat-fed mice [2] is “significantly higher than that of mice in control group”. Also, the “UCP1 expression in subcutaneous fat (immunohistochemistry)” value in the series with high fat-fed mice [2] (after 6 hours at 4° C.) is “exhibited significant UCP1 expression”. Also, the “diet consumption of mice” value in series [3] (high-fat groups) was “substantially the same as that of mice in control group”. Moreover, in series [3] (normal diet and high fat diet), the anorexia nervosa result was “did not cause anorexia nervosa”. The “diet consumption of mice” value in series [3] (normal groups) was “not different from that of mice in control group”. Moreover, the anorexia nervosa entry in series [4] is recorded as “would cause anorexia nervosa”. For the same compound, the “weight gain of mice” value in the series on high fat-fed mice [5] is “significantly slower than that of mice in control group”. In addition, the weight of mice entry in the series on high fat-fed mice [5] (statistically different after three weeks) was “significantly lower than that of mice in control group”. Moreover, in the series with high fat-fed mice [6], the Serum cholesterol result was “significantly decreased”, the “high-density lipoprotein (HDL) in the serum” value is reported as “not different from the control group”, the “serum low density lipoprotein (LDL)” value was “significantly decreased” and the “triglyceride in the serum” value was “not different from the control group”. In series [7], the glucose tolerance entry is “significantly better than that of mice in control group”, the insulin sensitivity result is “significantly better than that of mice in control group” and the random blood glucose result was “significantly lower than that of mice in control group”.
